Results as given in US20150284331A1 (priority 2012, published 2015).

Columns and labels:
butyrylcholinesterase = biological target: T1, butyrylcholinesterase (Rattus norvegicus, UniProt Q9JKC1); assay: inhibition of butyrylcholinesterase (rat serum); assay type: biochemical; details: rat serum enzyme; final concentration 4×10−5 mol/L
T1 construct: Butyrylcholinesterase: rat serum; from tissue; host or cells: rat serum
Experimental: (§1) Sample processing: All samples were formulated as 10-2 mol/L solution by using 100% DMSO. 10-2 mol/L solution was used in microdetermination. 1 μL was taken to use in single tube experiment.
(§2) Solvent control: 0.4% DMSO was used in microdetermination. The inhibition ratio of the sample was obtained wherein the effect of solvent was deducted.
Butyrylcholinesterase: rat serum

acetylcholinesterase = biological target: T2, acetylcholinesterase (Rattus norvegicus, UniProt P37136); assay: biochemical; assay type: biochemical; details: rat cortex enzyme; for acetylcholinesterase inhibitory activity inhibition ratio (%): final concentration 4×10−5 mol/L; for IC50: read-out: acetylcholinesterase inhibitory activity IC50 (nmol)
T2 construct: Acetylcholinesterase: rat cortex; from tissue; host or cells: rat cortex
T2 sequence (P37136 32-614): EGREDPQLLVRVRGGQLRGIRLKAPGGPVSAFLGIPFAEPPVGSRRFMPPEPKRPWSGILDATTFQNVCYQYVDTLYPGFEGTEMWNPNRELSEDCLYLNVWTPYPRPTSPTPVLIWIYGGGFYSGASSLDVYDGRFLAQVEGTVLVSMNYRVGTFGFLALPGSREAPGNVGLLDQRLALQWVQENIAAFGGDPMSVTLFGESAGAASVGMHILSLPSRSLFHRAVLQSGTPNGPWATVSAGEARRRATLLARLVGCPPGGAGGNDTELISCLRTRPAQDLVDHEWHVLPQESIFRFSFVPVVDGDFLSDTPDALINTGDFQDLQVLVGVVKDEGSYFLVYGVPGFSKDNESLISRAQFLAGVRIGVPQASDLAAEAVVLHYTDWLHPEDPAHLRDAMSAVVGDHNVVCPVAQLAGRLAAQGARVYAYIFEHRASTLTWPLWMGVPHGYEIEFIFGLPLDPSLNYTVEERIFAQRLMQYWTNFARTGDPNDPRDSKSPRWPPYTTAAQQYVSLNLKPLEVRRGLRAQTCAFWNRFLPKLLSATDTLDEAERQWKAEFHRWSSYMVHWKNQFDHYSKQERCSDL
Experimental: as §1, §2
Acetylcholinesterase: rat cortex

T1 sequence (Q9JKC1 24-597): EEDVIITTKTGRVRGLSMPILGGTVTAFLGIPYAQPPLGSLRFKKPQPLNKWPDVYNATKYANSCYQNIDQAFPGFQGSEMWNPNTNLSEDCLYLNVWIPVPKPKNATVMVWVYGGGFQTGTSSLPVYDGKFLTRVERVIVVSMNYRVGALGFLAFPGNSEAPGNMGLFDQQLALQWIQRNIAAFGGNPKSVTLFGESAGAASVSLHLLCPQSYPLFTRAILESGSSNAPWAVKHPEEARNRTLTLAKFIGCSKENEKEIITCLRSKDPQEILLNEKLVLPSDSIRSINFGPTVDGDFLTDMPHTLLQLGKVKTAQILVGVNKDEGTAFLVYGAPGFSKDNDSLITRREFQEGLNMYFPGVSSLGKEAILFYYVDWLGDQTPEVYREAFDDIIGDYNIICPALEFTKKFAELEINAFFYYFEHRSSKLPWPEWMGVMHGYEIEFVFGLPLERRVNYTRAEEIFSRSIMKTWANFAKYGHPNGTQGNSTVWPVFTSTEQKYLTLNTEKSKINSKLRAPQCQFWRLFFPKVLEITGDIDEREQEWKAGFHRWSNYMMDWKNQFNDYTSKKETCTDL

## COc1cc2c(cc1OC)C(=O)C(CC1(F)CCN(Cc3cc(F)c(F)cc3F)CC1)C2 (stereo not drawn) [DC17, 2-((4-fluoro-1-(2,4,5-trifluorobenzyl)piperidin-4-yl)methyl)-5,6-dimethoxy-2,3-dihydro-1H-inden-1-one]
butyrylcholinesterase
  butyrylcholinesterase inhibitory activity inhibition ratio (%): 49.79%
acetylcholinesterase
  acetylcholinesterase inhibitory activity inhibition ratio (%): 81.84%
  IC50: 2 nM

## COc1cc2c(cc1OC)C(=O)C(CC1(F)CCN(CCc3ccccc3F)CC1)C2 (stereo not drawn) [DC111, 2-((4-fluoro-1-(2-fluorophenethyl)piperidin-4-yl)methyl)-5,6-dimethoxy-2,3-dihydro-1H-inden-1-one]
butyrylcholinesterase
  butyrylcholinesterase inhibitory activity inhibition ratio (%): 71.58%
acetylcholinesterase
  acetylcholinesterase inhibitory activity inhibition ratio (%): 92.44%
  IC50: 1.96 nM

## O=C1c2cc(OCC(F)(F)F)c(OCC(F)(F)F)cc2CC1CC1(F)CCN(Cc2ccccc2F)CC1 (stereo not drawn) [DC103, 2-((4-fluoro-1-(2-fluorobenzyl)piperidin-4-yl)methyl)-5,6-bis(2,2,2-trifluoroethoxy)-2,3-dihydro-1H-inden-1-one]
butyrylcholinesterase
  butyrylcholinesterase inhibitory activity inhibition ratio (%): 70.0%
acetylcholinesterase
  acetylcholinesterase inhibitory activity inhibition ratio (%): 92.04%
  IC50: 0.86 nM

## COc1cc2c(cc1OC)C(=O)C(CC1(F)CC3CCC(C1)N3Cc1ccc(C(C)(C)C)cc1)C2 (stereo not drawn) [DC47, 2-((8-(4-(tert-butyl)benzyl)-3-fluoro-8-azabicyclo[3.2.1]octan-3-yl)methyl)-5,6-dimethoxy-2,3-dihydro-1H-inden-1-one]
butyrylcholinesterase
  butyrylcholinesterase inhibitory activity inhibition ratio (%): 7.63%
acetylcholinesterase
  acetylcholinesterase inhibitory activity inhibition ratio (%): 75.33%

## COc1cc2c(cc1OC)C(=O)C(CC1(F)CC3CCC(C1)N3Cc1cc(F)cc(F)c1F)C2 (stereo not drawn) [DC75, 2-((3-fluoro-8-(2,3,5-trifluorobenzyl)-8-azabicyclo[3.2.1]octan-3-yl)methyl)-5,6-dimethoxy-2,3-dihydro-1H-inden-1-one]
butyrylcholinesterase
  butyrylcholinesterase inhibitory activity inhibition ratio (%): 13.53%
acetylcholinesterase
  acetylcholinesterase inhibitory activity inhibition ratio (%): 72.53%

## COc1cc2c(cc1OC)C(=O)C(CC1(F)CCN(CC3CCC3)CC1)C2 (stereo not drawn) [DC31, 2-((1-(cyclobutylmethyl)-4-fluoropiperidin-4-yl)methyl)-5,6-dimethoxy-2,3-dihydro-1H-inden-1-one]
butyrylcholinesterase
  butyrylcholinesterase inhibitory activity inhibition ratio (%): 35.06%
acetylcholinesterase
  acetylcholinesterase inhibitory activity inhibition ratio (%): 85.82%

## COc1cc2c(cc1OC)C(=O)C(CC1(F)CCN(CC3CCCCC3)CC1)C2 (stereo not drawn) [DC33, 2-((1-(cyclohexylmethyl)-4-fluoropiperidin-4-yl)methyl)-5,6-dimethoxy-2,3-dihydro-1H-inden-1-one]
butyrylcholinesterase
  butyrylcholinesterase inhibitory activity inhibition ratio (%): 0.36%
acetylcholinesterase
  acetylcholinesterase inhibitory activity inhibition ratio (%): 90.10%

## COc1cc2c(cc1OC)C(=O)C(CC1(F)CC3CCC(C1)N3Cc1ccccc1)C2 (stereo not drawn) [DC59, 2-((8-benzyl-3-fluoro-8-azabicyclo[3.2.1]octan-3-yl)methyl)-5,6-dimethoxy-2,3-dihydro-1H-inden-1-one]
butyrylcholinesterase
  butyrylcholinesterase inhibitory activity inhibition ratio (%): 69.03%
acetylcholinesterase
  acetylcholinesterase inhibitory activity inhibition ratio (%): 86.12%

## COc1cc2c(cc1OC)C(=O)C(CC1(F)CCN(Cc3c(F)c(F)c(F)c(F)c3F)CC1)C2 (stereo not drawn) [DC28, 2-((4-fluoro-1-((perfluorophenyl)methyl)piperidin-4-yl)methyl)-5,6-dimethoxy-2,3-dihydro-1H-inden-1-one]
acetylcholinesterase
  acetylcholinesterase inhibitory activity inhibition ratio (%): 96.5%

## COc1cc2c(cc1OC)C(=O)C(CC1(F)CC3CCC(C1)N3Cc1cccc(F)c1)C2 (stereo not drawn) [DC61, 2-((3-fluoro-8-(3-fluorobenzyl)-8-azabicyclo[3.2.1]octan-3-yl)methyl)-5,6-dimethoxy-2,3-dihydro-1H-inden-1-one]
butyrylcholinesterase
  butyrylcholinesterase inhibitory activity inhibition ratio (%): 61.04%
acetylcholinesterase
  acetylcholinesterase inhibitory activity inhibition ratio (%): 96.75%

## COc1cc2c(cc1OC)C(=O)C(CC1(F)CC3CCC(C1)N3Cc1cc(F)c(F)cc1F)C2 (stereo not drawn) [DC57, 2-((3-fluoro-8-(2,4,5-trifluorobenzyl)-8-azabicyclo[3.2.1]octan-3-yl)methyl)-5,6-dimethoxy-2,3-dihydro-1H-inden-1-one]
butyrylcholinesterase
  butyrylcholinesterase inhibitory activity inhibition ratio (%): 1017%
acetylcholinesterase
  acetylcholinesterase inhibitory activity inhibition ratio (%): 96.75%

## COc1cc2c(cc1OC)C(=O)C(CC1(F)CCN(Cc3cc4c(cc3Br)OCO4)CC1)C2 (stereo not drawn) [DC9, 2-((1-((6-bromobenzo[d][1,3]dioxol-5-yl)methyl)-4-fluoropiperidin-4-yl)methyl)-5,6-dimethoxy-2,3-dihydro-1H-inden-1-one]
butyrylcholinesterase
  butyrylcholinesterase inhibitory activity inhibition ratio (%): 33.79%
acetylcholinesterase
  acetylcholinesterase inhibitory activity inhibition ratio (%): 97.34%

## COc1cc2c(cc1OC)C(=O)C(CC1(F)CCN(Cc3c(F)cccc3[N+](=O)[O-])CC1)C2 (stereo not drawn) [DC8, 2-((4-fluoro-1-(2-fluoro-6-nitrobenzyl)piperidin-4-yl)methyl)-5,6-dimethoxy-2,3-dihydro-1H-inden-1-one]
butyrylcholinesterase
  butyrylcholinesterase inhibitory activity inhibition ratio (%): 49.48%
acetylcholinesterase
  acetylcholinesterase inhibitory activity inhibition ratio (%): 76.05%
  IC50: 27100 nM

## COc1cc2c(cc1OC)C(=O)C(CC1(F)CCN(CC3CCCC3)CC1)C2 (stereo not drawn) [DC32, 2-((1-(cyclopentylmethyl)-4-fluoropiperidin-4-yl)methyl)-5,6-dimethoxy-2,3-dihydro-1H-inden-1-one]
butyrylcholinesterase
  butyrylcholinesterase inhibitory activity inhibition ratio (%): 46.68%
acetylcholinesterase
  acetylcholinesterase inhibitory activity inhibition ratio (%): 90.10%

## COc1cc2c(cc1OC)C(=O)C(CC1(F)CCN(Cc3cc(C)cc(C)c3)CC1)C2 (stereo not drawn) [DC4, 2-((1-(3,5-dimethylbenzyl)-4-fluoropiperidin-4-yl)methyl)-5,6-dimethoxy-2,3-dihydro-1H-inden-1-one]
butyrylcholinesterase
  butyrylcholinesterase inhibitory activity inhibition ratio (%): 72.82%
acetylcholinesterase
  acetylcholinesterase inhibitory activity inhibition ratio (%): 75.65%

## COc1cc2c(cc1OC)C(=O)C(CC1(F)CCN(CCc3ccccc3)CC1)C2 (stereo not drawn) [DC110, 2-((4-fluoro-1-phenethylpiperidin-4-yl)methyl)-5,6-dimethoxy-2,3-dihydro-1H-inden-1-one]
butyrylcholinesterase
  butyrylcholinesterase inhibitory activity inhibition ratio (%): 66.30%
acetylcholinesterase
  acetylcholinesterase inhibitory activity inhibition ratio (%): 88.55%
  IC50: 12.3 nM

## CCCOc1cc2c(cc1OCCC)C(=O)C(CC1(F)CCN(Cc3ccccc3F)CC1)C2 (stereo not drawn) [DC78, 2-((4-fluoro-1-(2-fluorobenzyl)piperidin-4-yl)methyl)-5,6-dipropoxy-2,3-dihydro-1H-inden-1-one]
butyrylcholinesterase
  butyrylcholinesterase inhibitory activity inhibition ratio (%): 71.0%
acetylcholinesterase
  acetylcholinesterase inhibitory activity inhibition ratio (%): 95.04%
  IC50: 0.96 nM

## COc1cc2c(cc1OC)C(=O)C(CC1(F)CC3CCC(C1)N3Cc1cccc(Br)c1)C2 (stereo not drawn) [DC51, 2-((8-(3-bromobenzyl)-3-fluoro-8-azabicyclo[3.2.1]octan-3-yl)methyl)-5,6-dimethoxy-2,3-dihydro-1H-inden-1-one]
butyrylcholinesterase
  butyrylcholinesterase inhibitory activity inhibition ratio (%): 15.26%
acetylcholinesterase
  acetylcholinesterase inhibitory activity inhibition ratio (%): 85.08%

## COc1cc2c(cc1OC)C(=O)C(CC1(F)CC3CCC(C1)N3Cc1cccc(C(F)(F)F)c1)C2 (stereo not drawn) [DC70, 2-((3-fluoro-8-(3-(trifluoromethyl)benzyl)-8-azabicyclo[3.2.1]octan-3-yl)methyl)-5,6-dimethoxy-2,3-dihydro-1H-inden-1-one]
butyrylcholinesterase
  butyrylcholinesterase inhibitory activity inhibition ratio (%): 0.09%
acetylcholinesterase
  acetylcholinesterase inhibitory activity inhibition ratio (%): 76.51%

## COc1cc2c(cc1OC)C(=O)C(CC1(F)CC3CCC(C1)N3Cc1ccc([N+](=O)[O-])cc1)C2 (stereo not drawn) [DC41, 2-((3-fluoro-8-(4-nitrobenzyl)-8-azabicyclo[3.2.1]octan-3-yl)methyl)-5,6-dimethoxy-2,3-dihydro-1H-inden-1-one]
acetylcholinesterase
  acetylcholinesterase inhibitory activity inhibition ratio (%): 56.8%

## COc1cc2c(cc1OC)C(=O)C(CC1(F)CC3CCC(C1)N3Cc1ccccc1Br)C2 (stereo not drawn) [DC54, 2-((8-(2-bromobenzyl)-3-fluoro-8-azabicyclo[3.2.1]octan-3-yl)methyl)-5,6-dimethoxy-2,3-dihydro-1H-inden-1-one]
acetylcholinesterase
  acetylcholinesterase inhibitory activity inhibition ratio (%): 90.3%

## COc1cc2c(cc1OC)C(=O)C(CC1(F)CC3CCC(C1)N3Cc1ccc(-c3ccccc3)cc1)C2 (stereo not drawn) [DC76, 2-((8-([1,1′-biphenyl]-4-ylmethyl)-3-fluoro-8-azabicyclo[3.2.1]octan-3-yl)methyl)-5,6-dimethoxy-2,3-dihydro-1H-inden-1-one]
acetylcholinesterase
  acetylcholinesterase inhibitory activity inhibition ratio (%): 85.3%

## COc1cc2c(cc1OC)C(=O)C(CC1(F)CC3CCC(C1)N3Cc1c(F)cccc1[N+](=O)[O-])C2 (stereo not drawn) [DC48, 2-((3-fluoro-8-(2-fluoro-6-nitrobenzyl)-8-azabicyclo[3.2.1]octan-3-yl)methyl)-5,6-dimethoxy-2,3-dihydro-1H-inden-1-one]
acetylcholinesterase
  acetylcholinesterase inhibitory activity inhibition ratio (%): 77.3%

## COc1cc2c(cc1OC)C(=O)C(CC1(F)CC3CCC(C1)N3Cc1ccccc1C#N)C2 (stereo not drawn) [DC43, 2-((3-((5,6-dimethoxy-1-oxo-2,3-dihydro-1H-inden-2-yl)methyl)-3-fluoro-8-azabicyclo[3.2.1]octan-8-yl)methyl)benzonitrile]
acetylcholinesterase
  acetylcholinesterase inhibitory activity inhibition ratio (%): 88.9%
